Measurements from ChEMBL document CHEMBL1909046, “DrugMatrix in vitro pharmacology data”.

Columns and labels:
Thromboxane-A synthase = target: T1, Thromboxane-A synthase (Homo sapiens, UniProt P24557); assay: biochemical; type: tissue-based, Platelet; conditions: platelet;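 note: enzyme inhibition assay with PGH2 supplied as substrate; in other assays of this panel Not Active means under 50% inhibition at 10 µM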
T1 sequence (P24557 whole entry): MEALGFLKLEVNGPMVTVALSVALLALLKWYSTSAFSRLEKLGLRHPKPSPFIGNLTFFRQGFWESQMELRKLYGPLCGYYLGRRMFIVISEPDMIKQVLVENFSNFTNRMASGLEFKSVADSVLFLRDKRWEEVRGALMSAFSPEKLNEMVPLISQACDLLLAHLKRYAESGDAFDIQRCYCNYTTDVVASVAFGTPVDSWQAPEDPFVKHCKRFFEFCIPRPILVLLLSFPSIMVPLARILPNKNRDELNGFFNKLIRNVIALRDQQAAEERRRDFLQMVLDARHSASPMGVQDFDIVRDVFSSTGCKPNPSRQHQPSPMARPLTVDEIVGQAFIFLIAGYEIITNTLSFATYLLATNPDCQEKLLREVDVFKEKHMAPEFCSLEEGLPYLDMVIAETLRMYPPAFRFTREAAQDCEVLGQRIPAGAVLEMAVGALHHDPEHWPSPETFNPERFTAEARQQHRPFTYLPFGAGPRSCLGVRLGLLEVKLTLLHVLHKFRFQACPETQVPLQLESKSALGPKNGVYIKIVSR

[1] = target: Vascular endothelial growth factor receptor 1 (Homo sapiens, UniProt P17948); type: cell-based; conditions: huvec; note: in other assays of this panel Not Active means under 50% inhibition at 10 µM
Chain of Vascular endothelial growth factor receptor 1 (P17948 whole entry): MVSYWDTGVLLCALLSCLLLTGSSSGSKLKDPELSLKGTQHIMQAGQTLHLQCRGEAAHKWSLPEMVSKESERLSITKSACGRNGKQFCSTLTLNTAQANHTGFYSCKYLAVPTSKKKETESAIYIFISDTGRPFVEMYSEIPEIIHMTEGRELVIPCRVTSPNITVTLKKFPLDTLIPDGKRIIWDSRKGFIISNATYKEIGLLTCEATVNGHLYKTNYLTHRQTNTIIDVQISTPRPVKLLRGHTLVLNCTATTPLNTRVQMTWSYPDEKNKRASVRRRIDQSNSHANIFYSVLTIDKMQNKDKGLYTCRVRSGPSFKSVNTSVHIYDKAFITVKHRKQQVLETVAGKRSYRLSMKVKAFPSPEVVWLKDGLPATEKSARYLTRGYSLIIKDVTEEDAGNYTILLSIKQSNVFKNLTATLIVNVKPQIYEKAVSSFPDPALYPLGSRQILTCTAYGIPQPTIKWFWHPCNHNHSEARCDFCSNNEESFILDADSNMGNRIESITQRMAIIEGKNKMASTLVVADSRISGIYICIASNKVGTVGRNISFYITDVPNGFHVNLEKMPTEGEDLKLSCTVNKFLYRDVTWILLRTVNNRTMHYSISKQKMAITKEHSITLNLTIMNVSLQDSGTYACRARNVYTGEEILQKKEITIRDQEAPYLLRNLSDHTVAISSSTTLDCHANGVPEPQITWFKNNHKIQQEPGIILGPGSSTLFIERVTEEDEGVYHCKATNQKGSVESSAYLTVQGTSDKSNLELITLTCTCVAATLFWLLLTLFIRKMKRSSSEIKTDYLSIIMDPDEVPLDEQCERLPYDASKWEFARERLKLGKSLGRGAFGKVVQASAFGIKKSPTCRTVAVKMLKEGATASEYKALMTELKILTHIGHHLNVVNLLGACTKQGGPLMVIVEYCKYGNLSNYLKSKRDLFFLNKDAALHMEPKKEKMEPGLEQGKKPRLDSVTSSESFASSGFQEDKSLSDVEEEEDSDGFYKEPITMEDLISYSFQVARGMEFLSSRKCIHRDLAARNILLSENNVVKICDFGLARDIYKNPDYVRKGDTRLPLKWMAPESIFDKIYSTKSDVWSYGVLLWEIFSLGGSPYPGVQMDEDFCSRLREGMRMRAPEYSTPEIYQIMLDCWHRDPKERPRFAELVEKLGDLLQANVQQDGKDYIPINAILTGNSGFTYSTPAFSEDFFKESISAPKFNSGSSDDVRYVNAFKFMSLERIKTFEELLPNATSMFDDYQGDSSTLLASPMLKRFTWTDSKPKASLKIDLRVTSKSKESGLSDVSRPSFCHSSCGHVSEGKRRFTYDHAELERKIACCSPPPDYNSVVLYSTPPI

[2] = target: Sodium-dependent dopamine transporter (Homo sapiens, UniProt Q01959); assay: DRUGMATRIX: Dopamine Transporter radioligand binding (ligand: [125I] RTI-55); type: cell membranes, CHO-K1, Membrane; conditions: Not Active = under 50% inhibition at 10 µM; for Ki: read-out: Ki
Chain of Sodium-dependent dopamine transporter (Q01959 whole entry): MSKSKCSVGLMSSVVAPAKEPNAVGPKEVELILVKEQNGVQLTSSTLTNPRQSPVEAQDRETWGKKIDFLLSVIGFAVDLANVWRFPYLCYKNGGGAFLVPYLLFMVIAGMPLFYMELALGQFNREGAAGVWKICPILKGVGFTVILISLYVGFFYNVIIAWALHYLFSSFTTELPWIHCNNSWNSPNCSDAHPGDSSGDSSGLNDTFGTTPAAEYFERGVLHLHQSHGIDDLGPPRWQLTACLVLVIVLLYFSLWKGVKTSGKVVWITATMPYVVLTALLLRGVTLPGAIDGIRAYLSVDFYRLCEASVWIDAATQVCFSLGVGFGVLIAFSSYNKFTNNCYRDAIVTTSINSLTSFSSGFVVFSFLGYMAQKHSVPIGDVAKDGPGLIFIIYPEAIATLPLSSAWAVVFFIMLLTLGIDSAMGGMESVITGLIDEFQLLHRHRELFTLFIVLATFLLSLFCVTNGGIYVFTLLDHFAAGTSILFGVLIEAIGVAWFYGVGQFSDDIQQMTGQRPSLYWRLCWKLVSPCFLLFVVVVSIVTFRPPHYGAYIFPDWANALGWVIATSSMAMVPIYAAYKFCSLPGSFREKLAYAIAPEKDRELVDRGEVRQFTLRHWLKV

Melanocortin receptor 3 = Melanocortin receptor 3 (Homo sapiens, UniProt P41968); type: cell membranes, Membrane; conditions: hek293; note: in other assays of this panel Not Active means under 50% inhibition at 10 µM
Chain of Melanocortin receptor 3 (P41968 whole entry): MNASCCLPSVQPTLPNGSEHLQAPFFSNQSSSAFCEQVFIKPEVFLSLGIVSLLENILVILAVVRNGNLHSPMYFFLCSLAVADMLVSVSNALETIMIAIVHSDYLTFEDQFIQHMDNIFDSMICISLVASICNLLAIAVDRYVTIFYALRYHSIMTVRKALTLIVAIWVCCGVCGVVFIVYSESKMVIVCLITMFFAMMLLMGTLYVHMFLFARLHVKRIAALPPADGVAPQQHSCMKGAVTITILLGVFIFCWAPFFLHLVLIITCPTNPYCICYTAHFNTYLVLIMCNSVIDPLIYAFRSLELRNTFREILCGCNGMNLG

[3] = DRUGMATRIX: Platelet-Derived Growth Factor (PDGF) radioligand binding (ligand: [125I] PDGF); type: cell-based; conditions: nih3t3; Not Active = under 50% inhibition at 10 µM
[4] = target: Epidermal growth factor receptor (Homo sapiens, UniProt P00533); assay: DRUGMATRIX: Protein Tyrosine Kinase, EGF Receptor enzyme inhibition (substrate: Poly(Glu:Tyr)); type: cell-based, Insect cells; conditions: insect cells; Not Active = under 50% inhibition at 10 µM
Chain of Epidermal growth factor receptor (P00533 whole entry): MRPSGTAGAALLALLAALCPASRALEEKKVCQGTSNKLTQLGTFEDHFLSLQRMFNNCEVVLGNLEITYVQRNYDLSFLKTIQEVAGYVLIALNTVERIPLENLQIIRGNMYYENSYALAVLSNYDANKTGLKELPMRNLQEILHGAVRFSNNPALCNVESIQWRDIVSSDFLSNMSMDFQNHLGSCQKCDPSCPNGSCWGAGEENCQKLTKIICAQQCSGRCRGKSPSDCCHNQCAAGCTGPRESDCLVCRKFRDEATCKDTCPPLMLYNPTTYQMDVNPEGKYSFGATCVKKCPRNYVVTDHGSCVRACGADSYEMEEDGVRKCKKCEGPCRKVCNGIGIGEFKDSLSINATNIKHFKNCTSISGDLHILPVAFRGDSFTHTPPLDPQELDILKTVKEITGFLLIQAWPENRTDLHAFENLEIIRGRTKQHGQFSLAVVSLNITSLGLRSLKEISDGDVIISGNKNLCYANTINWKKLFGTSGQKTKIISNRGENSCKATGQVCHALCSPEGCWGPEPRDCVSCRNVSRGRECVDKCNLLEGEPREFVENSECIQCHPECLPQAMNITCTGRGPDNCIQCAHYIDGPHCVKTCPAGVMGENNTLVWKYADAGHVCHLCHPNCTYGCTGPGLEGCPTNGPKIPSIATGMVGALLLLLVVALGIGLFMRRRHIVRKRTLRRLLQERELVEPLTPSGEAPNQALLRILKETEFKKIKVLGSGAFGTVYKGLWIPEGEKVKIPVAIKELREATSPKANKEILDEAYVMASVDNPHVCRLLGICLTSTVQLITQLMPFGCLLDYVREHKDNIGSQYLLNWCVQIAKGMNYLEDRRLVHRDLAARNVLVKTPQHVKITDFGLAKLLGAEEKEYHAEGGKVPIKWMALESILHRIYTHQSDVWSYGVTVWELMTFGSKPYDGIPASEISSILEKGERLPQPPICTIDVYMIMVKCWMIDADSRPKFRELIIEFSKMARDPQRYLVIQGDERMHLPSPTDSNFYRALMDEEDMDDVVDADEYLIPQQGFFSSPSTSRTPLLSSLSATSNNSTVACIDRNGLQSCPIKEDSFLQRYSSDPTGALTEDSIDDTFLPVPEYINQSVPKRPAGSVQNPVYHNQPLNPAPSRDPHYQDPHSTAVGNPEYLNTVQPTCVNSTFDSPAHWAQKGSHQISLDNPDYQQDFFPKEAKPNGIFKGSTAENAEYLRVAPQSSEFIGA

Structure (SMILES)	IC50 (Thromboxane-A synthase)	IC50 [1]	IC50 ([2]; cho-k1)	IC50 (Melanocortin receptor 3)	IC50 [3]	Ki [3]	IC50 [4]	IC50 ([2]; read-out: IC50) [µM]	Ki [2] [µM]
CN(C)CCC=C1c2ccccc2CCc2ccccc21 [AMITRIPTYLINE]	Not Active	Not Active	Not Active	Not Active	Not Active	Not Active	Not Active		
Cc1ccc(C)c(OCCCC(C)(C)C(=O)O)c1 [GEMFIBROZIL]	Not Active	Not Active	Not Active	Not Active	Not Active	Not Active	Not Active		
C[N+](C)(C)C[C@H](O)CC(=O)[O-] [LEVOCARNITINE]	Not Active	Not Active	Not Active	Not Active	Not Active	Not Active	Not Active		
CNC1=Nc2ccc(Cl)cc2C(c2ccccc2)=[N+]([O-])C1 [CHLORDIAZEPOXIDE]	Not Active	Not Active	Not Active	Not Active	Not Active	Not Active	Not Active		
CC(O)COC[C@H]1O[C@@H]2O[C@H]3[C@H](O)[C@@H](O)[C@@H](O[C@H]4[C@H](O)[C@@H](O)[C@@H](O[C@H]5[C@H](O)[C@@H](O)[C@@H](O[C@H]6[C@H](O)[C@@H](O)[C@@H](O[C@H]7[C@H](O)[C@@H](O)[C@@H](O[C@H]8[C@H](O)[C@@H](O)[C@@H](O[C@H]1[C@H](O)[C@H]2O)O[C@@H]8COCC(C)O)O[C@@H]7COCC(C)O)O[C@@H]6COCC(C)O)O[C@@H]5COCC(C)O)O[C@@H]4COCC(C)O)O[C@@H]3COCC(C)O (stereo partly drawn) [2-HYDROXYPROPYL-BETA-CYCLODEXTRIN]	Not Active	Not Active		Not Active	Not Active	Not Active	Not Active	1.69	1.34
C[C@]12CC[C@@H]3c4ccc(O)cc4CC[C@H]3[C@@H]1C[C@@H](O)[C@@H]2O [ESTRIOL]	Not Active	Not Active	Not Active	Not Active	Not Active	Not Active	Not Active		
O=C(O)P(=O)(O)O [FOSCARNET]	Not Active	Not Active	Not Active	Not Active	Not Active	Not Active	Not Active		
CC1=NN(c2ccccc2)C(=O)C1 [EDARAVONE]	Not Active	Not Active	Not Active	Not Active	Not Active	Not Active	Not Active		
CCCNC(C)C(=O)Nc1ccccc1C (stereo not drawn) [PRILOCAINE]	Not Active	Not Active	Not Active	Not Active	Not Active	Not Active	Not Active		
C[C@@H]1C/C=C/C=C/C=C/C=C/[C@H](O[C@@H]2O[C@H](C)[C@@H](O)[C@H](N)[C@@H]2O)C[C@@H]2O[C@](O)(C[C@@H](O)C[C@H]3O[C@@H]3/C=C/C(=O)O1)C[C@H](O)[C@H]2C(=O)O [NATAMYCIN]	Not Active	Not Active	Not Active	Not Active	Not Active	Not Active	Not Active		
C[C@H]1O[C@H](O[C@H]2[C@H](O)[C@@H](O)[C@@H](O[C@H]3[C@H](O)[C@@H](O)C(O)O[C@@H]3CO)O[C@@H]2CO)[C@H](O)[C@@H](O)[C@@H]1N[C@H]1C=C(CO)[C@@H](O)[C@H](O)[C@H]1O (stereo partly drawn) [ACARBOSE]	Not Active	Not Active	Not Active	Not Active	Not Active	Not Active	Not Active		
CN(C)C(=N)NC(=N)N [METFORMIN]	Not Active	Not Active	Not Active	Not Active	Not Active	Not Active	Not Active		
CCc1ccc(CCOc2ccc(CC3SC(=O)NC3=O)cc2)nc1 (stereo not drawn) [PIOGLITAZONE]	Not Active	Not Active	Not Active	Not Active	Not Active	Not Active	Not Active		
CN1CCN(C(c2ccccc2)c2ccccc2)CC1 [CYCLIZINE]	Not Active	Not Active		Not Active	Not Active	Not Active	Not Active	0.763	0.606
COc1cc(OC)c(C(=O)CCCN2CCCC2)c(OC)c1 [BUFLOMEDIL]	Not Active	Not Active	Not Active	Not Active	Not Active	Not Active	Not Active		
C[C@]12CC[C@H]3[C@@H](CCC4=CC(=O)CC[C@@H]43)[C@@H]1CC[C@@H]2O [NANDROLONE]	Not Active	Not Active	Not Active	Not Active	Not Active	Not Active	Not Active		
CS(=O)(=O)Nc1ccc([N+](=O)[O-])cc1Oc1ccccc1 [NIMESULIDE]	Not Active	Not Active		Not Active	Not Active	Not Active	Not Active	14.9	11.8
CN1CCC(=C2c3ccccc3CC(=O)c3sccc32)CC1 [KETOTIFEN]	Not Active	Not Active	Not Active	Not Active	Not Active	Not Active	Not Active		
NC12CC3CC(CC(C3)C1)C2 [AMANTADINE]	Not Active	Not Active	Not Active	Not Active	Not Active	Not Active	Not Active		
NC(=O)N1c2ccccc2CC(=O)c2ccccc21 [OXCARBAZEPINE]	Not Active	Not Active	Not Active	Not Active	Not Active	Not Active	Not Active		
